Reference: patent US11578343B2, “CAS9 proteins including ligand-dependent inteins” (President and Fellows of Harvard College, priority 2014, dated 2023)

How the values were obtained:
Assay type in all cases: cell-based, human
[1] = tested on: EMX, VEGF, and CLTA genomic loci; test: High-throughput DNA sequencing of genome modifications, summary over on-target and off-target sites
Method: (§1) We assayed these Cas9:sgRNA combinations in human cells for their ability to modify the three on-target loci as well as 11 known off-target genomic sites (Table 3)^4,5,10,13. Cells were treated with or without 1 μM 4-HT during transfection, and after 12 h the media was replaced with fresh media lacking 4-HT. […] Genomic DNA was isolated 60 h post-transfection and analyzed by high-throughput DNA sequencing
(§2) High-throughput DNA sequencing of genome modifications. HEK293-GFP stable cells were transfected with plasmids expressing Cas9 (500 ng) and sgRNA (125 ng) as described above. […] 4-HT (1 μM final), where appropriate, was added during transfection. 12 h after transfection, the media was replaced with full serum media without 4-HT. Genomic DNA was isolated and pooled from three biological replicates 60 h after transfection using a previously reported^11 protocol with a DNAdvance Kit (Agencourt). 150 ng or 200 ng of genomic DNA was used as a template to amplify by PCR the on-target and off-target genomic sites with flanking HTS primer pairs described previously^11. PCR products were purified using RapidTips (Diffinity Genomics) and quantified using the PicoGreen dsDNA Assay Kit (Invitrogen). Purified DNA was PCR amplified with primers containing sequencing adaptors, purified with the MinElute PCR Purification Kit (Qiagen) and AMPure XP PCR Purification (Agencourt). Samples were sequenced on a MiSeq high-throughput DNA sequencer (Illumina), and sequencing data was analyzed as described previously^4.
(§3) Sensitivity limit of off-target cleavage assays. We used paired end sequencing to identify indels caused by genomic on- and off-target cleavage. […] A 1 ng sample of human gDNA represents only ˜330 unique genomes, and thus only ˜330 unique copies of each genomic site are present. PCR amplification for each genomic target was performed on a total of 150 ng or 200 ng of input gDNA, which provides amplicons derived from at most 50,000 or 65,000 unique gDNA copies, respectively. Therefore, the high-throughput sequencing assay cannot detect rare genome modification events that occur at a frequency of less than approximately 1 in 50,000 (0.002%). When comparing between two conditions, such as wt Cas9 vs. intein-Cas9, this threshold becomes approximately 10 in 50,000 (0.02%) when using the Fisher exact test and a conservative multiple comparison correction (Bonferroni with 14 samples). See also Minoche, A. E., Dohm, J. C., & Himmelbauer, H. Evaluation of genomic high-throughput sequencing data generated on Illumina HiSeq and Genome Analyzer systems. Genome Biology 12, R112 (2011).

VEGF On = test: High-throughput DNA sequencing of genome modifications; details: 500 ng Cas9 plasmid; for Mod. Freq (indels/total sequences), VEGF On: Table 4
Method: as §1, §2, §3

VEGF Off 1 = test: as above; details: 500 ng Cas9 plasmid; for Mod. Freq (indels/total sequences), VEGF Off 1: Table 4
Method: as §1, §2, §3

CLTA Off 1 = test: as above; details: 500 ng Cas9 plasmid; for Mod. Freq (indels/total sequences), CLTA Off 1: Table 4
Method: as §1, §2, §3

VEGF Off 3 = test: as above; details: 500 ng Cas9 plasmid; for Mod. Freq (indels/total sequences), VEGF Off 3: Table 4
Method: as §1, §2, §3

CLTA On = test: as above; details: 500 ng Cas9 plasmid; for Mod. Freq (indels/total sequences), CLTA On: Table 4
Method: as §1, §2, §3

EMX Off 2 = test: as above; details: 500 ng Cas9 plasmid; for Mod. Freq (indels/total sequences), EMX Off 2: Table 4
Method: as §1, §2, §3

EMX Off 1 = test: as above; details: 500 ng Cas9 plasmid; for Mod. Freq (indels/total sequences), EMX Off 1: Table 4
Method: as §1, §2, §3

VEGF Off 2 = test: as above; details: 500 ng Cas9 plasmid; for Mod. Freq (indels/total sequences), VEGF Off 2: Table 4
Method: as §1, §2, §3

EMX Off 4 = test: as above; details: 500 ng Cas9 plasmid; for Mod. Freq (indels/total sequences), EMX Off 4: Table 4
Method: as §1, §2, §3

EMX On = test: as above; details: 500 ng Cas9 plasmid; for Mod. Freq (indels/total sequences), EMX On: Table 4; for Mod Freq (indels/total sequences), EMX On: +4-HT, Table 6
Method: as §1, §2, §3

CLTA Off 2 = test: as above; details: 500 ng Cas9 plasmid; for Mod. Freq (indels/total sequences), CLTA Off 2: Table 4
Method: as §1, §2, §3

VEGF Off 4 = test: as above; details: 500 ng Cas9 plasmid; for Mod. Freq (indels/total sequences), VEGF Off 4: Table 4
Method: as §1, §2, §3

EMX Off 3 = test: as above; details: 500 ng Cas9 plasmid; for Mod. Freq (indels/total sequences), EMX Off 3: Table 4
Method: as §1, §2, §3

CLTA Off 3 = test: as above; details: 500 ng Cas9 plasmid; for Mod. Freq (indels/total sequences), CLTA Off 3: Table 4
Method: as §1, §2, §3

intein(Cys574)-Cas9: Cas9 with 37R3-2 intein replacing Cys574 (SEQ ID NO: 33)
Off-target modification frequency, average fold lower than wild-type Cas9 (80 ng) ([1]; EMX locus, all four off-target sites, +4-HT, similar on-target cleavage): 4 fold
Activity compared to wild-type Cas9 ([1]; absence of 4-HT): much less active
Activity compared to wild-type Cas9 ([1]; presence of 4-HT): slightly less active than wild-type Cas9
Mod. Freq (indels/total sequences), VEGF On (VEGF On; +4-HT (1 μM, 12 h)): 3.03%
Mod Freq (indels/total sequences), VEGF On (VEGF On; +4-HT, Table 6): 2.31%
Mod. Freq (indels/total sequences), VEGF On (VEGF On; −4-HT): 0.85%
Mod. Freq (indels/total sequences), VEGF Off 1 (VEGF Off 1; +4-HT (1 μM, 12 h)): 4.68%
Mod Freq (indels/total sequences), VEGF Off 1 (VEGF Off 1; +4-HT, Table 6): 3.18%
Mod. Freq (indels/total sequences), VEGF Off 1 (VEGF Off 1; −4-HT): 0.29%
Mod. Freq (indels/total sequences), CLTA Off 1 (CLTA Off 1; +4-HT (1 μM, 12 h)): 0.04%
Mod Freq (indels/total sequences), CLTA Off 1 (CLTA Off 1; +4-HT, Table 6): 0.03%
Mod. Freq (indels/total sequences), CLTA Off 1 (CLTA Off 1; −4-HT): 0.01%
Mod. Freq (indels/total sequences), VEGF Off 3 (VEGF Off 3; +4-HT (1 μM, 12 h)): 0.19%
Mod Freq (indels/total sequences), VEGF Off 3 (VEGF Off 3; +4-HT, Table 6): 0.07%
Mod. Freq (indels/total sequences), VEGF Off 3 (VEGF Off 3; −4-HT): 0.01%
Mod. Freq (indels/total sequences), CLTA On (CLTA On; +4-HT (1 μM, 12 h)): 7.65%
Mod Freq (indels/total sequences), CLTA On (CLTA On; +4-HT, Table 6): 6.35%
Mod. Freq (indels/total sequences), CLTA On (CLTA On; −4-HT): 1.81%
Mod. Freq (indels/total sequences), EMX Off 2 (EMX Off 2; +4-HT (1 μM, 12 h)): 0.04%
Mod Freq (indels/total sequences), EMX Off 2 (EMX Off 2; +4-HT, Table 6): 0.02%
Mod. Freq (indels/total sequences), EMX Off 2 (EMX Off 2; −4-HT): 0.01%
Mod. Freq (indels/total sequences), EMX Off 1 (EMX Off 1; +4-HT (1 μM, 12 h)): 0.27%
Mod Freq (indels/total sequences), EMX Off 1 (EMX Off 1; +4-HT, Table 6): 0.17%
Mod. Freq (indels/total sequences), EMX Off 1 (EMX Off 1; −4-HT): 0.01%
Mod. Freq (indels/total sequences), VEGF Off 2 (VEGF Off 2; +4-HT (1 μM, 12 h)): 0.77%
Mod Freq (indels/total sequences), VEGF Off 2 (VEGF Off 2; +4-HT, Table 6): 0.38%
Mod. Freq (indels/total sequences), VEGF Off 2 (VEGF Off 2; −4-HT): 0.05%
Mod. Freq (indels/total sequences), EMX Off 4 (EMX Off 4; +4-HT (1 μM, 12 h)): 1.13%
Mod Freq (indels/total sequences), EMX Off 4 (EMX Off 4; +4-HT, Table 6): 0.85%
Mod. Freq (indels/total sequences), EMX Off 4 (EMX Off 4; −4-HT): 0.09%
Mod. Freq (indels/total sequences), EMX On (EMX On; +4-HT (1 μM, 12 h)): 9.47%
Mod Freq (indels/total sequences), EMX On (EMX On; listed as intein-Cas9 (C574)): 6.42%
Mod Freq (indels/total sequences), EMX On (EMX On; listed as intein-Cas9(C574)): 6.4%
Mod. Freq (indels/total sequences), EMX On (EMX On; −4-HT): 0.99%
Mod. Freq (indels/total sequences), CLTA Off 2 (CLTA Off 2; +4-HT (1 μM, 12 h)): 0.02%
Mod Freq (indels/total sequences), CLTA Off 2 (CLTA Off 2; +4-HT, Table 6): 0.00%
Mod. Freq (indels/total sequences), CLTA Off 2 (CLTA Off 2; −4-HT): 0.00%
Mod. Freq (indels/total sequences), VEGF Off 4 (VEGF Off 4; +4-HT (1 μM, 12 h)): 1.40%
Mod Freq (indels/total sequences), VEGF Off 4 (VEGF Off 4; +4-HT, Table 6): 0.91%
Mod. Freq (indels/total sequences), VEGF Off 4 (VEGF Off 4; −4-HT): 0.07%
Mod. Freq (indels/total sequences), EMX Off 3 (EMX Off 3; +4-HT (1 μM, 12 h)): 0.29%
Mod Freq (indels/total sequences), EMX Off 3 (EMX Off 3; +4-HT, Table 6): 0.25%
Mod. Freq (indels/total sequences), EMX Off 3 (EMX Off 3; −4-HT): 0.02%
Mod. Freq (indels/total sequences), CLTA Off 3 (CLTA Off 3; +4-HT (1 μM, 12 h)): 0.01%
Mod Freq (indels/total sequences), CLTA Off 3 (CLTA Off 3; +4-HT, Table 6): 0.01%
Mod. Freq (indels/total sequences), CLTA Off 3 (CLTA Off 3; −4-HT): 0.00%
